Reference: PubChem BioAssay (NCI)
Several values for one entry are separate records, joined by “and”; a condition that tells them apart may be missing. Identical values can stand only once.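 1) Cells in 96-well plates. 2) Compound, 48 h, 5 concentrations. 3) Linear interpolation between surrounding doses. 4) Unreached endpoint = highest concentration. GI50 is the concentration that inhibits growth by half. TGI is the concentration that stops growth completely.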

Assays:
Test in all cases: NCI tumour cell line growth inhibition, 48 h; in the data active = GI50 below about 0.43 µM; inactive = the rest
786-0 renal = tested on: 786-0 renal
A549 NSCLC = tested on: A549 NSCLC
ACHN renal = tested on: ACHN renal
CCRF-CEM leukemia = tested on: CCRF-CEM leukemia
COLO 205 colon = tested on: COLO 205 colon
DU-145 prostate = tested on: DU-145 prostate
HCC-2998 colon = tested on: HCC-2998 colon
HCT-116 colon = tested on: HCT-116 colon
HL-60(TB) leukemia = tested on: HL-60(TB) leukemia
HOP-62 NSCLC = tested on: HOP-62 NSCLC
HS 578T breast = tested on: HS 578T breast
IGROV1 ovarian = tested on: IGROV1 ovarian
K-562 leukemia = tested on: K-562 leukemia
KM12 colon = tested on: KM12 colon
LOX IMVI melanoma = tested on: LOX IMVI melanoma
M14 melanoma = tested on: M14 melanoma
MALME-3M melanoma = tested on: MALME-3M melanoma
MDA-MB-231 breast = tested on: MDA-MB-231 breast
MDA-MB-435 = tested on: MDA-MB-435
MDA-N = tested on: MDA-N
MOLT-4 leukemia = tested on: MOLT-4 leukemia
NCI-H460 lung = tested on: NCI-H460 lung
NCI-H522 lung = tested on: NCI-H522 lung
NCI/ADR-RES ovarian = tested on: NCI/ADR-RES ovarian
OVCAR-3 ovarian = tested on: OVCAR-3 ovarian
OVCAR-4 ovarian = tested on: OVCAR-4 ovarian
OVCAR-5 ovarian = tested on: OVCAR-5 ovarian
OVCAR-8 ovarian = tested on: OVCAR-8 ovarian
PC-3 prostate = tested on: PC-3 prostate
SF-295 CNS = tested on: SF-295 CNS
SF-539 CNS = tested on: SF-539 CNS
SK-MEL-2 melanoma = tested on: SK-MEL-2 melanoma
SK-MEL-28 melanoma = tested on: SK-MEL-28 melanoma
SK-MEL-5 melanoma = tested on: SK-MEL-5 melanoma
SK-OV-3 ovarian = tested on: SK-OV-3 ovarian
SN12C renal = tested on: SN12C renal
SNB-19 CNS = tested on: SNB-19 CNS
SNB-75 CNS = tested on: SNB-75 CNS
SR leukemia = tested on: SR leukemia
SW-620 colon = tested on: SW-620 colon
TK-10 renal = tested on: TK-10 renal
U251 CNS = tested on: U251 CNS
UACC-257 melanoma = tested on: UACC-257 melanoma
UACC-62 melanoma = tested on: UACC-62 melanoma
UO-31 renal = tested on: UO-31 renal

COc1cccc(-c2cc(=O)c3cc(N(C)C)ccc3[nH]2)c1
302 nM and 369 nM and 800 nM: TGI (DU-145 prostate)
1060 nM and 119 nM and 766 nM: TGI (KM12 colon)
7.74 nM and 5.29 nM: TGI (MDA-N)
825 nM and 843 nM: TGI (SNB-19 CNS)
65000 nM and 34200 nM: TGI (TK-10 renal)
active: GI50 (786-0 renal) 36.8 nM and 9.6 nM | GI50 (ACHN renal) 89.2 nM and 11 nM | GI50 (CCRF-CEM leukemia) 13.5 nM and 5.24 nM | GI50 (COLO 205 colon) 28.3 nM and 12.5 nM | GI50 (DU-145 prostate) 34 nM and 7.3 nM | GI50 (HCC-2998 colon) 47.2 nM and 22.9 nM | GI50 (HCT-116 colon) 15.5 nM and 4.33 nM | GI50 (HL-60(TB) leukemia) 11.1 nM and 2.64 nM | GI50 (HS 578T breast) 22.1 nM and 4.61 nM | GI50 (IGROV1 ovarian) 89.2 nM and 42.3 nM and 17.4 nM | GI50 (K-562 leukemia) 9.37 nM and 4.04 nM | GI50 (KM12 colon) 33.4 nM and 15.9 nM | GI50 (LOX IMVI melanoma) 35.4 nM and 12 nM | GI50 (M14 melanoma) 23.4 nM and 6.82 nM | GI50 (MALME-3M melanoma) 9.87 nM and 4.03 nM | GI50 (MDA-MB-231 breast) 10.7 nM | GI50 (MDA-N) 1.54 nM | GI50 (MOLT-4 leukemia) 43.5 nM and 6.42 nM | GI50 (NCI-H460 lung) 34.2 nM and 16.9 nM | GI50 (NCI-H522 lung) 18.4 nM and 3.92 nM | GI50 (NCI/ADR-RES ovarian) 14.4 nM and 5.33 nM | GI50 (OVCAR-3 ovarian) 15.3 nM and 2.66 nM | GI50 (PC-3 prostate) 27.5 nM and 8.06 nM | GI50 (SF-295 CNS) 16.9 nM and 29.6 nM and 4.85 nM | GI50 (SF-539 CNS) 10.6 nM and 3.32 nM | GI50 (SK-MEL-2 melanoma) 35.9 nM and 7.35 nM | GI50 (SK-MEL-28 melanoma) 20.9 nM and 5.82 nM | GI50 (SK-MEL-5 melanoma) 12.5 nM and 3.56 nM | GI50 (SK-OV-3 ovarian) 25 nM and 3.59 nM | GI50 (SNB-75 CNS) 27.1 nM and 8.69 nM | GI50 (SR leukemia) 4.95 nM and 2.24 nM | GI50 (SW-620 colon) 17.3 nM and 3.82 nM | GI50 (U251 CNS) 18.2 nM and 5.94 nM | GI50 (UACC-62 melanoma) 16.3 nM and 3.63 nM | GI50 (UO-31 renal) 64.2 nM and 12.6 nM and 13.2 nM
88.7 nM: TGI (K-562 leukemia)
44.5 nM and 20.5 nM: TGI (NCI-H522 lung)
> 100000 nM and 78100 nM: TGI (UO-31 renal)
40.1 nM and 25.9 nM: TGI (MOLT-4 leukemia)
35.1 nM and 22 nM and 12.8 nM: TGI (SF-539 CNS)
> 100000 nM and 36700 nM: TGI (786-0 renal)
> 100000 nM and 51900 nM: TGI (ACHN renal)
10.3 nM and 3.61 nM: TGI (MDA-MB-435)
31.8 nM and 21 nM and 22.2 nM: TGI (NCI/ADR-RES ovarian)
87.5 nM and 31.7 nM: TGI (COLO 205 colon)
94.6 nM [middle of 4 runs]: TGI (OVCAR-8 ovarian)
62.1 nM and 8.53 nM: TGI (HL-60(TB) leukemia)
> 100000 nM: TGI (A549 NSCLC) | TGI (HOP-62 NSCLC) | TGI (IGROV1 ovarian) | TGI (M14 melanoma) | TGI (MALME-3M melanoma) | TGI (OVCAR-4 ovarian) | TGI (OVCAR-5 ovarian) | TGI (PC-3 prostate) | TGI (SK-MEL-28 melanoma) | TGI (SN12C renal) | TGI (SNB-75 CNS) | TGI (SW-620 colon) | TGI (UACC-257 melanoma) | TGI (UACC-62 melanoma)
188 nM and 23.3 nM: TGI (SR leukemia)
